Entries after “also recorded” stand apart in the source; their conditions may differ.
Columns and labels:
cardiac myocytes = assay: ISO-stimulated cAMP accumulation in cultured cardiac myocytes; format: cell-based, mouse; details: 10 μM compound
mice = assay: Basal cardiac function (echocardiography) under chronic drug infusion alone; format: in vivo, mouse; details: chronic infusion of drug alone (3 days to 1 week)
Text: ISO with or without AC5 inhibitors were chronically infused with osmotic mini-pump implanted subcutaneously at indicated doses for 1 week in c57Bl/6 mice. Mice were then subjected to echocardiography (a) and the hearts were removed and subjected to pathological examinations such as myocardial apoptosis (b) and fibrosis (c). n=4-8.
In C57Bl/6 mice, ISO with or without AC5 inhibitors or metoprolol were chronically infused with an osmotic mini-pump at the indicated doses for 1 week. Mice were then subjected to echocardiography (a) and heart tissue were subjected to a myocardial apoptosis assay (b). *, p<0.01 vs vehicle. #, p<0.05 vs vehicle. .dagger., p<0.01 vs ISO. .dagger-dbl., p<0.05 vs ISO. n=4-15. […] Comparisons between multiple groups were made using ANOVA with post-hoc tests.
Mice were anesthetized with 2.5% tribromoethanol (0.010 to 0.015 mL per gram of body weight) injected intraperitoneally, and echocardiography was performed with ultrasonography (ACUSON Sequoia C256, Siemens Medical Solutions, Malvern, Pa.). For acute injection of isoproterenol, forskolin and milrinon, a PE-10 catheter was inserted into the right jugular vein, and drugs were injected at the rate of 1 μl/s. cAMP accumulation assay in H9C2 cells, a cardiac myoblast cell line, was examined as previously described. […]

AC5 [1] = assay: Acute ISO, milrinone or carbachol challenge in mice chronically infused with Ara-Ade; format: in vivo, mouse; details: 0.05 μg/kg IV ISO, AC5Tg
AC5 [2] = biological target: T1, AC5 (Mus musculus, UniProt P84309); assay: as above; format: in vivo
T1 sequence (P84309 whole entry): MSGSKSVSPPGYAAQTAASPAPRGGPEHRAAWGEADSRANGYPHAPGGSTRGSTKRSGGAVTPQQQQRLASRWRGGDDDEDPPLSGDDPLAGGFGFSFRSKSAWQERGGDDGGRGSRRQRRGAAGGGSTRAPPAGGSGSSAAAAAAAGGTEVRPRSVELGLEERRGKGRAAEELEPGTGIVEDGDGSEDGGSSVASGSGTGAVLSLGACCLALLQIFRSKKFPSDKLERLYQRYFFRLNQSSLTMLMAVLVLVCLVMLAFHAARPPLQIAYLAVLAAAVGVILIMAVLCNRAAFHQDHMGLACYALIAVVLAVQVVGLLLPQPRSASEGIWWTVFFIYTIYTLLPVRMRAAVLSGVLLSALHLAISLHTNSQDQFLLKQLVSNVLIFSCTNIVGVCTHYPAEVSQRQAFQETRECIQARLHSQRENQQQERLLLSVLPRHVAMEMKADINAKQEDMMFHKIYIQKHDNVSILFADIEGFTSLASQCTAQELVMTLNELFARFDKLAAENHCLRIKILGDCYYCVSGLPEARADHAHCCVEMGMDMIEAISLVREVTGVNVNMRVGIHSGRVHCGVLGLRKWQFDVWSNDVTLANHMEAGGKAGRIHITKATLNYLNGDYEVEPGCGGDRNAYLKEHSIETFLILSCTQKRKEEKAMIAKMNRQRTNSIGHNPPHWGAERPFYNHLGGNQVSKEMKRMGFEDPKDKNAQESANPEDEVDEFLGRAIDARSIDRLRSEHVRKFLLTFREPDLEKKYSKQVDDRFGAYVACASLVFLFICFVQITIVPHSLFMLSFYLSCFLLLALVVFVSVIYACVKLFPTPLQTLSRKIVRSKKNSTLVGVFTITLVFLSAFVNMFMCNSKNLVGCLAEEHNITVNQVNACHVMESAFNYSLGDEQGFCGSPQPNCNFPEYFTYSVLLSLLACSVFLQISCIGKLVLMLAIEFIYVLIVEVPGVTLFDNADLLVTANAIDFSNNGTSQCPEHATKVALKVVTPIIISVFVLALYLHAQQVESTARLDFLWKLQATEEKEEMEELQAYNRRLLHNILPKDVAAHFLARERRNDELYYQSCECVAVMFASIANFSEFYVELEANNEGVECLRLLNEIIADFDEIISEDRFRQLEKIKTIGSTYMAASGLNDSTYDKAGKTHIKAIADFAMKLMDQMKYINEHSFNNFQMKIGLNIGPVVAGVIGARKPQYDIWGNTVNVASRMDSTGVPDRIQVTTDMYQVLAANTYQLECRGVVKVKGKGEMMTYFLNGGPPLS

AC5 [3] = biological target: T1, AC5; assay: Forskolin-stimulated cAMP production in heart membrane preparations from AC5Tg; details: forskolin 50 μM
Protocol: Hearts and striatum were dissected from the mice and membrane preparations were made as previously described. This crude membrane preparation was used in the AC assay. AC activity was measured by a modification of the method of Salomon et al. as previously described. […] Double-reciprocal plots were examined as previously described.

[4] = test system: Yorkshire pigs, CAO / CAR; assay: Pig ischemia and reperfusion model; format: in vivo
Protocol: Yorkshire pigs were under anesthesia and instrumented in accordance with established procedures. After 4 days of recovery, the pigs were subjected to ischemia and reperfusion also in accordance with established procedures. At 3 hours of coronary artery reperfusion, the animals were sacrificed and the infarct size was measures with TTC staining.

ERK/MEK/Bcl-2 pathway = assay: Western blot of hearts after chronic ISO infusion; format: in vivo, mouse
Protocol: The activities of MEK1 and ERK1/2 signaling pathway were examined by measuring the phosphorylated and total forms.
Western blotting was conducted with commercially available antibodies, except for type 5 and type 6 AC. Western blotting for type 5 and 6 AC was performed as previously described. Protein expression was quantified by densitometry.

Nc1ncnc2c1ncn2[C@@H]1O[C@H](CO)[C@@H](O)[C@@H]1O [Ara-Ade, 9-β-D-arabinofuranosyladenine]
decrease in ISO-induced cAMP production / accumulation in cultured cardiac myocytes (cardiac myocytes): 20% | basal LVEF (mice): did not change LVEF; also recorded: did not affect basal LVEF | difference in LVEF between vehicle and Ara-Ade in AC5Tg (AC5 [1]): significant | difference in LVEF between vehicle and Ara-Ade in WT (AC5 [2]; 0.05 μg/kg IV ISO, WT): no significant difference | LVEF after ISO vs vehicle (AC5 [2]; Ara-Ade 20 mg/kg/day chronically infused, 0.25 μg/kg IV ISO): lower | LVEF elevation by milrinone, vehicle vs Ara-Ade group (AC5 [2]; milrinone infusion): no significant difference | decrease in HR by carbachol (AC5 [2]; vehicle vs Ara-Ade): greater in vehicle than Ara-Ade | inhibition of cAMP production, heart membrane preparation from AC5Tg (AC5 [3]): inhibited cAMP production | infarct size in chronically instrumented conscious pigs ([4]; delivered after CAR): reduced infarct size | reactive hyperemia in pigs ([4]; pig, in vivo): inhibited reactive hyperemia | phosphorylation of Bcl-2 (ERK/MEK/Bcl-2 pathway): significantly increased | phosphorylation of ERK1/2 and MEK (ERK/MEK/Bcl-2 pathway): increased

Source: patent US8871735B2, “Methods and compositions for providing cardiac protection” (University of Medicine and Dentistry of New Jersey, priority 2008, dated 2014)
